Assay results as given in paper PMC10891067, “A co-assembly platform engaging macrophage scavenger receptor A for lysosome-targeting protein degradation” (Nature Communications, 2024).
Each block holds one compound with its values, some of them ahead of it. Non-standard residues stand in square brackets, D forms with d. Residues, ends and D or L forms follow the SMILES beside them. *: point of attachment. Acetyl(2-naphthyl) = O=C(Cc1ccc2ccccc2c1)*; Ahx = NCCCCCC(=O)O

How the values were obtained:
SR-A = biological target: T1, SR-A (Mus musculus, UniProt P30204); test: SR-A inhibition assay with poly I / poly C (IL-17A uptake); type: cell-based; settings: RAW264.7, with exogenous IL-17A and the peptide mixture
T1 construct: endogenous in cells; host or cells: RAW264.7
T1 sequence (P30204 1-458): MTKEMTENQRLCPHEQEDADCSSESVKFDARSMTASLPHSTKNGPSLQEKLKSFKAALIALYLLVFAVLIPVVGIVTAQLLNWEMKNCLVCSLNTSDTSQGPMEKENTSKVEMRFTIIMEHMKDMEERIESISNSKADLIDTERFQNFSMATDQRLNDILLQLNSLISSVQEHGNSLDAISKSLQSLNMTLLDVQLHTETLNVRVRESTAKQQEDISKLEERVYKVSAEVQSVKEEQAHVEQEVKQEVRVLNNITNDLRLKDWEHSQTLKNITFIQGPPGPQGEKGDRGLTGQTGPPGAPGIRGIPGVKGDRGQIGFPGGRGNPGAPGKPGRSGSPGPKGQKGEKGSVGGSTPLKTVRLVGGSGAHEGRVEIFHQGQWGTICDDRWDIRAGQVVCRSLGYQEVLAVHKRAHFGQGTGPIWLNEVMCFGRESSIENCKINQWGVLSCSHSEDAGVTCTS
Method: To verify the involvement of SR-A in the IL-17A endocytosis, RAW264.7 cells were treated with the SR-A inhibitor Poly I or the control Poly C at the indicated concentration together with the 50 μM 17Abp and SRAL mixture and 0.5 μg/ml IL-17A for 6 h. Then, flow cytometry analysis was used to measure the intracellular IL-17A level according to the procedure mentioned above.

PD-L1 = biological target: T2, PD-L1 (Mus musculus, UniProt Q9EP73); test: Western blot of PD-L1 in RAW264.7 cells; type: cell-based; settings: Suppl Fig.18c, 50 μM, PBS = 100
T2 construct: endogenous in cells; host or cells: RAW264.7 (WT and SR-A-KO)
T2 sequence (Q9EP73 19-290): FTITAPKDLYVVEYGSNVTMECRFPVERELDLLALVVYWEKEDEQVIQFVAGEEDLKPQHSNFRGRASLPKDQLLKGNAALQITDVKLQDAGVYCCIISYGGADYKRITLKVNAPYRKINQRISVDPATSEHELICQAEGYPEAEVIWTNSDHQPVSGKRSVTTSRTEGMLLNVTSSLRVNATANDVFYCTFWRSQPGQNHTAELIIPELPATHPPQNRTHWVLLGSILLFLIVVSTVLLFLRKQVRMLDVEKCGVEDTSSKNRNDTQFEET
Method: Proteins were extracted using RIPA buffer (Beyotime) supplemented with protease inhibitors (Beyotime) and quantified using the BCA assay (Solarbio). SDS–PAGE was performed to separate proteins, which were then transferred to PVDF membranes (EMD Millipore). Next, the membranes were blocked in 5% fat-free milk for 2 h and incubated with primary antibodies at 4 °C overnight. including Rabbit anti-GAPDH antibody (1:5000, ab181602, Abcam), Mouse anti-GAPDH antibody (1:5000, 60004-1-Ig, Proteintech), Rabbit anti-CD2O4 antibody (1:1000, ab151707, Abcam), Mouse anti-PD-L1antibody (1:1000, 66248-1-Ig, Proteintech), Mouse anti-His-Tag antibody (1:2000, CW0286, CoWin Biosciences), Phospho-p44/42 MAPK (Erk1/2) (Thr202/Tyr204) (D13.14.4E) XP® Rabbit mAb, (1:1000, 4370T, Cell Signaling Technology), p44/42 MAPK (Erk1/2) (137F5) Rabbit mAb (1:1000 4695T, Cell Signaling Technology). After washing the membranes three times, secondary antibodies including HRP-conjugated Affinipure Goat Anti-Mouse IgG(H + L) (1:5000, SA00001-1, Proteintech), HRP-conjugated Affinipure Goat Anti-Rabbit IgG(H + L) (1:5000, SA00001-2, Proteintech) labeled with horseradish peroxidase (Proteintech) were applied at room temperature for 2 h and the immunoreactivity was visualized by supper ECL western blotting substrate (Coolaber). The densitometric analysis was performed by ImageJ software (NIH).

IL-17A [1] = biological target: T3, IL-17A (Mus musculus, UniProt Q62386); test: Lysosome inhibition assay (LPT, BafA1); type: cell-based; set-up: host or cells: added exogenously to RAW264.7, SR-A-KO RAW264.7, U-118 MG, DC 2.4 or HaCaT cells; settings: RAW264.7, 0.5 μg/ml IL-17A + 50 μM 17A-Lytaca, 6 h
T3 sequence (Q62386 26-158): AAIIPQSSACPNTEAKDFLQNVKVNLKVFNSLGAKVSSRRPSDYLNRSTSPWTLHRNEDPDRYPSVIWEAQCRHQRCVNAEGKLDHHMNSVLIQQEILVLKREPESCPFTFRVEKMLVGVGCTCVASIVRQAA
Method: To confirm the involvement of lysosomes, RAW264.7 cells were pretreated with PBS, LPT (0.1 mg/ml), or BafA1 (100 nM) for 2 h at 37 °C. […] The accumulation of IL-17A in the cells was then measured via flow cytometry, following the aforementioned procedure.

RAW264.7 cells = test: IL-17A uptake mechanism: endocytic pathway inhibitors, 4 °C, NaN3; type: cell-based; settings: RAW264.7, 0.5 μg/ml IL-17A + 50 μM mixed fi-SRAL and fi-17Abp, 6 h; NaN3 100 mM, CPZ 3 μg/ml, Me-β-CD 0.5 mM, EIPA 20 μM
Method: To evaluate the uptake mechanism of IL-17A, RAW264.7 cells were pretreated with various inhibitors for 30 min at 37 °C: chlorpromazine (clathrin-mediated endocytosis inhibitor, 3 μg/ml), Me-β-cyclodextrin (0.5 mM, lipid rafting pathway inhibitors), EIPA (20 μM, pinocytosis inhibitor). In addition, the cells were cultured at 4 °C or treated with NaN3 (100 mM) to assess the effect of energy on IL-17A uptake. After that, the cells were cultured with fresh medium containing inhibitors at the same concentrations, 50 μM 17Abp and SRAL mixture, and 0.5 μg/ml IL-17A for 6 h. The uptake of the IL-17A by cells was analyzed through flow cytometry according to the procedure mentioned above.
Supplementary Fig. 5 Uptake of IL-17A by macrophages is an energy-dependent process involving several endocytosis pathways. a) Uptake of IL-17A in RAW264.7 cells incubated at 4 °C or pretreated with 100 mM NaN3 for 0.5 h followed by the addition of 0.5 μg/ml IL-17A and 50 μM mixed fi-SRAL and fi-17Abp peptides for 6 h. b) Uptake of IL-17A in RAW264.7 cells incubated with 0.5 mM Me-β-CD (lipid rafting pathway inhibitor), 20 μM EIPA (pinocytosis inhibitor) or 3 μg/ml CPZ (clathrin-endocytosis inhibitor) for 0.5 h followed by the addition of 0.5 μg/ml IL-17A and 50 μM mixed fi-SRAL and fi-17Abp peptides for 6 h. MFI was determined by flow cytometry and the relative MFI was normalized to the control group. Data are presented as the mean ± SD, and error bars represent the standard deviation of biological replicates (n = 3). P values were determined by one-way ANOVA with Tukey’s multiple comparisons test. […]

[2] = test system: IMQ-induced psoriasis-like mouse model; test: IMQ-induced psoriasis mouse model: acanthosis (H&E of back skin); type: in vivo; settings: day 7, H&E of back skin, IMQ psoriasis BALB/c mice, i.p. 7 days: fm-17Abp 15, fm-SRAL 22, 17A-Lytaca 15+22, control-Lytaca 12+22 mg/kg/day, MTX 1 mg/kg/twice day
Method: 8 to10-week-old female BALB/c mice were purchased from Peking University Health Science Center Department of Laboratory Animal Science. They were randomly divided into seven groups. Vehicle group (PBS administration) was treated with 62.5 mg/day of Vaseline cream while the other six groups were treated with 62.5 mg/day of 5% IMQ cream (Sichuan Med-shine Pharmaceuticals) on the shaved back skin (2 cm × 3 cm) of mice (days 1–7).
The psoriasis area and severity index (PASI) consists of measurements of skin erythema, scale, and thickness. They were scored independently on a scale of 0–4: 0, none; 1, slight; 2, moderate; 3, marked; 4, very marked. The cumulative PASI score was obtained by adding the 3 index scores (scores of 0–12). The thickness of the mouse skin was measured using a micrometer, and the average value was measured three times a day. For histopathology analysis, tissues from the euthanized animals were fixed in formalin and embedded in paraffin. Sections (5 μm thickness) were stained with H&E.

IL-17A [3] = biological target: T3, IL-17A; test: IL-17A protein level in skin lesion (ELISA); type: in vivo; settings: i.p. 7 days: fm-17Abp 15, fm-SRAL 22, 17A-Lytaca 15+22, control-Lytaca 12+22 mg/kg/day, MTX 1 mg/kg/twice day
Method: Plasma cytokine concentrations of IL-17A, IL-6, IL-22, and CCL-20 were determined by a commercial ELISA kit (Dogesce). For skin IL-17A detection, the back skin of mice was isolated and triturated with a grinder (Tiss-24, Jing Xin). Cell debris was precipitated via centrifugation (1000×g, 4 °C, 15 min), and IL-17A was measured in the supernatant using the IL-17A ELISA kit (Dogesce) and normalized to the total protein concentration, which was determined via BCA assay.

Effect on IL-17A uptake efficiency (in words) (SR-A): concentration-dependent inhibition
Compound: polyinosinic acid [Poly I]

Compound: C[C@H](NC(=O)[C@H](CCC(=O)O)NC(=O)[C@H](C)NC(=O)[C@H](CCC(=O)O)NC(=O)[C@H](C)NC(=O)[C@H](CCC(=O)O)NC(=O)[C@H](C)NC(=O)[C@H](CCC(=O)O)NC(=O)[C@H](C)NC(=O)[C@H](CCC(=O)O)NC(=O)[C@H](C)NC(=O)[C@H](CCC(=O)O)NC(=O)[C@H](C)NC(=O)[C@H](CCC(=O)O)NC(=O)[C@H](C)NC(=O)[C@H](CCC(=O)O)NC(=O)[C@H](C)NC(=O)[C@H](CCC(=O)O)NC(=O)[C@H](C)NC(=O)[C@H](CCC(=O)O)NC(=O)[C@H](C)NC(=O)[C@H](CCC(=O)O)NC(=O)[C@H](C)NC(=O)[C@H](CCC(=O)O)NC(=O)[C@H](C)NC(=O)[C@H](CCC(=O)O)NC(=O)[C@H](C)NC(=O)[C@H](CCC(=O)O)NC(=O)[C@H](C)NC(=O)[C@H](CCC(=O)O)NC(=O)CCCCCNC(=O)[C@H](Cc1ccccc1)NC(=O)[C@H](Cc1ccccc1)NC(=O)Cc1ccc2ccccc2c1)C(N)=O [nf-SRAL] ({Acetyl(2-naphthyl)}-FF[Ahx]EAEAEAEAEAEAEAEAEAEAEAEAEAEAEA-NH2)
Relative intensity of PD-L1 (PD-L1; replicate 1): 96 | Relative intensity of PD-L1 (PD-L1; replicate 2): 106 | Relative intensity of PD-L1 (PD-L1; replicate 3): 102

Compound: CC(=O)N[C@@H](CC(C)C)C(=O)N[C@@H](CC(C)C)C(=O)N[C@H](C=O)CCCNC(=N)N [LPT, Leupeptin]
IL-17A accumulation in cells with lysosome inhibitor (in words) (IL-17A [1]): significantly higher IL-17A accumulation in cells

Effect on IL-17A uptake efficiency (in words) (SR-A): no discernible impact
Compound: polycytidylic acid [Poly C]

Compound: [N-]=[N+]=[N-].[Na+] [NaN3]
Effect of endocytosis/energy inhibitor on IL-17A uptake (in words) (RAW264.7 cells): significantly reduced intracellular fluorescence signals of IL-17A

Compound: methyl-β-cyclodextrin [Me-β-CD]
Effect of endocytosis/energy inhibitor on IL-17A uptake (in words) (RAW264.7 cells): significant decreases in cellular fluorescence

Compound: CN(C)CCCN1c2ccccc2Sc2ccc(Cl)cc21 [CPZ, chlorpromazine]
Effect of endocytosis/energy inhibitor on IL-17A uptake (in words) (RAW264.7 cells): significant decreases in cellular fluorescence

Compound: CCN(c1nc(N)c(C(=O)N=C(N)N)nc1Cl)C(C)C [EIPA, 5-(N-ethyl-N-isopropyl)-amiloride]
Effect of endocytosis/energy inhibitor on IL-17A uptake (in words) (RAW264.7 cells): decreased IL-17A uptake

Skin IL-17A (IL-17A [3]; day 7, animal 1 of n = 5, IMQ psoriasis BALB/c mice): 60.0538 pg/mg protein | Skin IL-17A (IL-17A [3]; day 7, animal 2 of n = 5, IMQ psoriasis BALB/c mice): 102.2787 pg/mg protein | Skin IL-17A (IL-17A [3]; day 7, animal 3 of n = 5, IMQ psoriasis BALB/c mice): 103.0959 pg/mg protein | Skin IL-17A (IL-17A [3]; day 7, animal 4 of n = 5, IMQ psoriasis BALB/c mice): 57.7792 pg/mg protein | Skin IL-17A (IL-17A [3]; day 7, animal 5 of n = 5, IMQ psoriasis BALB/c mice): 78.3380 pg/mg protein
Compound: CN(Cc1cnc2nc(N)nc(N)c2n1)c1ccc(C(=O)N[C@@H](CCC(=O)O)C(=O)O)cc1 [MTX, methotrexate]
Acanthosis ([2]; animal 1 of n = 5): 66.3 μm | Acanthosis ([2]; animal 2 of n = 5): 89.8 μm | Acanthosis ([2]; animal 3 of n = 5): 73.7 μm | Acanthosis ([2]; animal 4 of n = 5): 59.4 μm | Acanthosis ([2]; animal 5 of n = 5): 85.7 μm
